Each structure is given as a SMILES string.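 All cell lines were grown in 96-well plates and treated with compound for 48 hours. Here, GI50 denotes the concentration required for 50% inhibition of growth. The concentration for full growth arrest is given as TGI.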 Some results are limits rather than exact numbers.

Common to all, as to experiment: growth of human tumour cells (NCI), 48 h
The subject of assay [1] is UACC-62 melanoma.
The subject of assay [2] is U251 CNS.
Assay [3] has as its system A549 NSCLC.
Assay [4] deals with 786-0 renal.
In assay [5] the test system is M14 melanoma.
In assay [6] the test system is K-562 leukemia.
Assay [7] relates to MDA-MB-435.
Assay [8] concerns MDA-MB-231 breast.
For assay [9], the system named is A498 renal.
For assay [10], the system named is BT-549 breast.

`CC(C)(C)CC(C)(C)c1cc2c(O)c(c1)Cc1cc(C(C)(C)CC(C)(C)C)cc(c1O)Cc1cc(C(C)(C)CC(C)(C)C)cc(c1O)Cc1cc(C(C)(C)CC(C)(C)C)cc(c1O)Cc1cc(C(C)(C)CC(C)(C)C)cc(c1O)C2`: the TGI in [1], in assay [2], in assay [3], in assay [4], in [5] and in assay [6] was more than 100 µM in each case.
As for `NC[C@H]1Nc2ccccc2[C@@H](O)C1O` (some centres not stated), the TGI in [1], in assay [7], in assay [8], in assay [2], in assay [3] and in assay [4] was more than 100 µM in each case. In addition, the TGI in assay [5] and in assay [6] was more than 100 µM each time.
`CC(C)[O-].CC(C)[O-].O=C1C=C([O-])C(=O)c2ccccc21.O=C1C=C([O-])C(=O)c2ccccc21.[Ti+4]`: the GI50 in [1] is 17.6 µM; in assay [9], more than 100 µM; in assay [2] it was more than 68.8 µM; in assay [3], 47.2 µM; in assay [4] it was more than 86.4 µM; in assay [5], 17.8 µM. Also, the GI50 in assay [6] was more than 89.4 µM. The TGI in assay [1], in assay [9], in assay [2], in assay [3], in assay [4] and in assay [5] was more than 100 µM throughout. Besides, the TGI in assay [6] is more than 100 µM.
As to `CC1=C(C(=O)Nc2cc(=O)n(C)c(=O)n2C)C(c2cccc([N+](=O)[O-])c2)C(C(=O)Nc2cc(=O)n(C)c(=O)n2C)=C(C)N1`, the TGI in assay [9], in assay [2], in assay [3], in [4], in assay [5] and in assay [6] was more than 100 µM throughout.
As for `CN1CC(=O)N(C)c2ncn(Cc3ccccc3)c2C1=O`, the TGI in assay [1], in [9], in [2], in assay [3], in assay [4] and in assay [5] was more than 100 µM each time. Further, the TGI in assay [6] was more than 100 µM.
For the compound `COc1cc(OC)c(SSCCCCS(=O)O)c(OC)c1`, the TGI in assay [1] was 27.9 µM; in assay [9], 33.6 µM; in [2], 27.9 µM; in assay [3] it was 40.3 µM; in assay [4], 35.4 µM; in assay [5] it was 27.5 µM. For the same compound, the TGI in [6] was found to be 89.3 µM.
On to `COc1ccc(-c2cc(=O)c3ccccc3o2)cc1N`, for which the TGI in assay [1], in [9], in assay [2], in assay [3], in assay [4] and in [5] was more than 100 µM each time. In assay [6], this compound returned a TGI of more than 100 µM.
In the case of `NC(=O)CCC(Nc1c2ccccc2nc2ccccc12)C(=O)O` (configuration not stated), the TGI in [2], in assay [3], in [4], in assay [5] and in [6] was more than 100 µM in each case.
On to `Cc1ccc(NC2=C(Cl)C(=O)N(Cc3ccc(Cl)cc3)C2=O)cc1O`, for which the GI50 was 17.5 µM in assay [1]; 4.45 µM in assay [7]; 9.75 µM in [8]; 11.9 µM in [9]; 4.88 µM in assay [2]; 10.5 µM in assay [3]. The figures for the GI50 in [4], in [5] and in assay [6] were 0.753 µM, 13.8 µM and 61.8 µM, respectively. The TGI in assay [1] is 39.4 µM; in assay [7], 26.2 µM; in assay [8], 32.4 µM; in assay [9], 25.9 µM; in [2], more than 100 µM; in [3] it was 29.2 µM. The TGI was 18.8 µM in [4], 38 µM in [5] and more than 100 µM in [6].
Turning to `C[C@]12CCC(=O)C(O)=C1CC[C@@H]1C2CC[C@]2(C)NC(=O)CCC12` (some centres not stated), the TGI in assay [1], in [9], in assay [2], in assay [3], in assay [4] and in assay [5] was more than 100 µM throughout. Moreover, the TGI in assay [6] was more than 100 µM.
Turning to `CCN(CC)CCCNC(=O)C1COc2cc(-c3cc(=O)c4ccccc4o3)ccc2O1` (configuration not stated), the TGI in assay [1] was more than 100 µM; in assay [9], more than 100 µM; in [2], more than 100 µM; in [3], more than 100 µM; in assay [4] it was more than 100 µM; in assay [5], 40 µM. The compound also came in with a TGI in [6] of more than 100 µM.
Consider `COc1ccc(NC(=O)CC/C(CC(=O)C(C)(C)C)=N\NC(=O)C(=O)NN)cc1`, for which the TGI in assay [1], in assay [9], in [2], in [3], in assay [4] and in assay [5] was more than 100 µM each time. The TGI in assay [6] is more than 100 µM.
For `O=C(CCc1nnc2s/c(=C\c3ccc(Cl)c(Cl)c3)c(=O)n12)Nc1ccc(Cl)c(Cl)c1`, the TGI in [1], in assay [9], in assay [2], in assay [3], in assay [4] and in assay [5] was more than 100 µM each time. The TGI in [6] is more than 100 µM.
`O=C1c2ccccc2-c2oc(=O)c3ccccc3c21`: the TGI in [1], in [7], in assay [8], in assay [9], in assay [2] and in assay [4] was more than 100 µM throughout. The compound further showed a TGI in assay [5] of more than 100 µM.
With `O=C(c1ccccc1)c1c(-c2ccccc2)sc2nc3ccccc3nc12`, the TGI in [1], in assay [9], in assay [2], in assay [3], in assay [4] and in assay [5] was more than 100 µM throughout. This compound came in with a TGI in assay [6] of more than 100 µM.
With `N#CC1=C(N)Oc2c(ccc3ccccc23)C1c1ccccc1` (configuration not stated), the GI50 in [1] is 0.0567 µM; in assay [8], 0.099 µM; in assay [9], 0.0185 µM; in [2] it was 0.0454 µM; in [10], 0.0821 µM; in assay [3], 0.0845 µM. The GI50 was 0.0503 µM in [4], 0.0348 µM in assay [5] and 0.0322 µM in assay [6]. In addition, the TGI in assay [1] is 16 µM; in assay [8] it was 7.5 µM; in [9] it was 0.0809 µM; in assay [2] it was 15.1 µM; in [10] it was 3.4 µM; in assay [3], 18.3 µM. The figures for the TGI in assay [4], in assay [5] and in [6] were 13 µM, 13.6 µM and 22.6 µM, respectively.
With `CC(=O)c1cccc(C)c1C(=O)O`, the TGI in assay [1], in assay [9], in assay [2], in [3], in assay [4] and in [5] was more than 100 µM in each case. In addition, the TGI in [6] is more than 100 µM.
For the compound `C#CCOCn1cnc2c(Sc3c([N+](=O)[O-])ncn3C)ncnc21`, the TGI in assay [1], in assay [9], in [2], in assay [3], in [4] and in [5] was more than 100 µM each time. Further, in assay [6], the TGI was more than 100 µM.
Regarding `COC(=O)C1=C(O)c2cc(-c3ccccc3)c(-c3ccccc3)c(C#N)c2NC(=O)C1`, the TGI in assay [1] is more than 100 µM; in [9], more than 100 µM; in [2], more than 100 µM; in [3] it was 54.4 µM; in assay [4], more than 100 µM; in assay [5], more than 100 µM. For the same compound, in assay [6], the TGI is more than 100 µM.
On to `CCOc1ccc(N=Cc2ccc3cc(C)ccc3n2)cc1`, for which the TGI in assay [1], in assay [9], in [2], in assay [3], in assay [4] and in assay [5] was more than 100 µM throughout. Also, the TGI in assay [6] turned out to be 69.8 µM.
As to `CC(=O)CC(N)=O`, the TGI in assay [1], in [9], in assay [2], in [3], in assay [4] and in assay [5] was more than 100 µM throughout. Besides, the TGI in assay [6] was more than 100 µM.
As for `O=C(O)Cc1cc(=O)[nH]c2c1/C(=N/O)CCC2`, the TGI in assay [2], in assay [3], in assay [4], in assay [5] and in assay [6] was more than 100 µM throughout.
`CCOC(=O)Cc1ccc2c(c1O)C(=O)c1c(ccc(CC(=O)OCC)c1O)C2=O`: the TGI in assay [1], in assay [9], in assay [2], in [3], in [4] and in assay [5] was more than 100 µM throughout. The TGI in assay [6] was more than 100 µM.
`COc1ccc2c3c([nH]c2c1[N+](=O)[O-])C(C)N(Cc1ccc([N+](=O)[O-])cc1)CC3` (configuration not stated): the TGI in [1] was 52.4 µM; in assay [9], 63.7 µM; in assay [2], 46.9 µM; in assay [3], more than 100 µM; in assay [4], more than 100 µM; in assay [5], 35.9 µM. The same compound registered a TGI in assay [6] of 77.1 µM.
For `CC(=Nc1ccccc1)C1=C(O)C(Cc2ccc(O)cc2)NC1=O` (configuration not stated), the GI50 is 0.058 µM in assay [1]; 1.06 µM in assay [8]; 0.255 µM in assay [9]; 0.0609 µM in assay [2]; 0.0577 µM in [10]; 0.126 µM in assay [3]. The GI50 in assay [4] is 0.505 µM; in assay [5] it was 0.0469 µM; in assay [6], 0.044 µM. Besides, the TGI in assay [1] was more than 100 µM; in assay [8], more than 100 µM; in [10], 1.12 µM; in assay [3], more than 100 µM; in assay [4], more than 100 µM; in [5] it was 0.269 µM. The TGI in assay [6] is more than 50.7 µM.
Consider `O=C1O[C@H](c2ccccc2)[C@@H]2CC3(CCN12)OCCO3`, for which the TGI in assay [1], in [9], in [2], in assay [3], in [4] and in assay [5] was more than 100 µM throughout. This compound displayed a TGI in assay [6] of more than 100 µM.
Take `CC1=C[C@]2(O)C(=O)[C@H](C)C[C@H]3[C@@H](CC[C@@](C)(O)/C=C\2C1=O)C3(C)C`: the TGI is 30.6 µM in assay [1]; 47.2 µM in assay [9]; 52.7 µM in [2]; more than 100 µM in assay [3]; 39.5 µM in assay [4]; 39.9 µM in [5]. Also, in assay [6], the TGI was more than 100 µM.
As to `O=C1C=CC(=O)C12CCc1ccccc12`, the TGI in assay [1], in [9], in assay [2], in assay [3], in [4] and in [5] was more than 100 µM throughout. In assay [6], the TGI is more than 85.1 µM.
Take `CN(C)CCNC(=O)c1cccc2nc3cc(Cl)ccc3nc12`: the TGI in assay [1] is 9.67 µM; in assay [9] it was 4.65 µM; in [2], 12.4 µM; in [3], more than 26.7 µM; in assay [4], more than 31 µM; in assay [5] it was more than 21.9 µM. In assay [6], this compound registered a TGI of 4.14 µM.
As for `Cn1nc(-c2ccccc2)c(C(=O)/C=C/c2ccc(Cl)cc2)c(N2CCCCC2)c1=O`, the TGI worked out at 5.82 µM in assay [1]; 3.82 µM in assay [2]; 8.65 µM in assay [3]; 3.67 µM in assay [4]; 9.17 µM in assay [5]; 5.39 µM in assay [6].
For `CC(=O)OC1CCn2nnc(CO)c21` (configuration not stated), the TGI in assay [1], in [2], in [3], in assay [4] and in assay [6] was more than 100 µM throughout.

The values above are taken from PubChem BioAssay (NCI).
